Reference: PubChem BioAssay (NCI)
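48-hour exposure; five concentrations; linearly interpolated endpoints. TGI denotes the concentration required for complete inhibition of growth.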

Experiments:
Test in all cases: inhibition of tumour cell growth, NCI panel, 48 h
786-0 renal = system: 786-0 renal
K-562 leukemia = system: K-562 leukemia
M14 melanoma = system: M14 melanoma
MDA-MB-435 = system: MDA-MB-435
MDA-N = system: MDA-N
NCI-H226 lung = system: NCI-H226 lung
NCI-H522 lung = system: NCI-H522 lung
OVCAR-3 ovarian = system: OVCAR-3 ovarian
OVCAR-4 ovarian = system: OVCAR-4 ovarian
OVCAR-8 ovarian = system: OVCAR-8 ovarian
SF-539 CNS = system: SF-539 CNS
SR leukemia = system: SR leukemia
SW-620 colon = system: SW-620 colon
T-47D breast = system: T-47D breast
TK-10 renal = system: TK-10 renal
U251 CNS = system: U251 CNS
UO-31 renal = system: UO-31 renal

SMILES	TGI (786-0 renal) [µM]	TGI (K-562 leukemia) [µM]	TGI (M14 melanoma) [µM]	TGI (MDA-MB-435) [µM]	TGI (MDA-N) [µM]	TGI (NCI-H226 lung) [µM]	TGI (NCI-H522 lung) [µM]	TGI (OVCAR-3 ovarian) [µM]	TGI (OVCAR-4 ovarian) [µM]	TGI (OVCAR-8 ovarian) [µM]	TGI (SF-539 CNS) [µM]	TGI (SR leukemia) [µM]	TGI (SW-620 colon) [µM]	TGI (T-47D breast) [µM]	TGI (TK-10 renal) [µM]	TGI (U251 CNS) [µM]	TGI (UO-31 renal) [µM]
COC(=O)c1cc2c(c3c1CC(Cc1ccccc1)C3=O)CCC2 (stereo not drawn)	> 100	> 100	> 100	> 100	> 100	> 100	> 100	> 100	> 100	> 100	> 100	> 100	> 100	> 100	> 100	> 100	
CCCCc1ccc(-n2sc3ncc(C)cc3c2=O)cc1	> 100	> 100	29.4	> 100	> 100	> 100	40.6	47.8	> 100	51.1		> 100	78	63.1	> 100	> 100	20.2
O=C1CSC2(CC(/C=C/c3cccc([N+](=O)[O-])c3)=NN2c2cccc(S(=O)(=O)O)c2)N1c1nc2ccccc2s1 (stereo not drawn)	31.8	> 100	92.6	34.9	59.1	77.5	34.1		72.1	30.7	> 100	48.3	76.4	73.8	39.8	36.3	34.3
O=C(N/N=C/c1ccc([N+](=O)[O-])cc1)Nc1ccc(C(=O)O)cc1	> 100	> 100	> 100	> 100	> 100	85.8	58	26	> 100	> 100	> 100	> 100	> 100	49.5	> 100	> 100	> 100
c1ccc2oc(-c3ccc(-c4nc5ccccc5o4)c4c3CC4)nc2c1	> 100	> 100	> 100	> 100	> 100	> 100		> 100	> 100	> 100	> 100	> 100	> 100	> 100	> 100	> 100	> 100
CC1(C)OCC([C@H]2O[C@@H](CC(=S)NCCCCCCCCCCCCNC(=S)C[C@H]3O[C@@H](C4COC(C)(C)O4)[C@H]4OC(C)(C)O[C@H]43)[C@H]3OC(C)(C)O[C@H]32)O1 (stereo partly drawn)	> 100	> 100	> 100	> 100	> 100	> 100	> 100	> 100	> 100	> 100	> 100	> 100	> 100	> 100	> 100	> 100	95
O=C1C(Cl)C2(CC(/C=C/c3ccccc3)=NN2c2cccc(S(=O)(=O)O)c2)N1c1nc2ccccc2s1 (stereo not drawn)	31	54.3	36	36.1	46	56.2	20.1		31.9	25	35.3	30	93.6	27.9	30.9	32.1	16.1
CC1=NN(c2nc(N)nc(/C(C#N)=C\c3csc([N+](=O)[O-])c3)n2)C(C)(C)C1	32.2	> 100	> 100	> 100	98.9	76	50.1	78.9	56.4	64.7	> 100	> 100	> 100	56.9	95.5	39.4	> 100
c1cnc2c(c1)ccc1cccnc12	> 100	> 52.7	> 26.9	> 100	> 100	> 23.5	> 100	> 86.6	> 88.4	> 100	> 100	4.26	> 100	> 100	> 92	> 100	> 49.5
Fc1ccc(N2C(=S)SC(=Nc3ccccc3)C2=Nc2ccccc2)cc1	> 100	> 100	> 100	> 100	> 100	> 100	> 100	> 100	> 100	> 100	> 100	> 100	> 100	> 100	> 100	> 100	> 100
O=C(c1ccccc1)N(C(=O)c1ccccc1)c1nc(SCc2ccccc2)ns1	70.5	> 100	86.1	91.8	90.5	78.7	61.5	59.4	> 100	> 100	44.1	57.9	> 100	> 100	84.5	37.8	23.7
CC1(C)OC(=S)N(c2ccccc2)C12C=Cc1ccccc1O2 (stereo not drawn)	> 100	> 100	> 100	> 100	> 100	> 100	> 100	> 100	> 100	> 100		37.2	> 100	82.4	> 100	> 100	> 100
CCOC(=O)/C=C/CCO[Si](C)(C)C(C)(C)C	> 100	> 100		> 100	> 100	> 100	> 100	> 100	> 100	> 100	> 100	> 100	> 100	> 100	> 100	> 100	> 100
Cc1cc(N(CCC#N)CCC#N)ccc1/C(N=Nc1cccc(Cl)c1)=N/NC(=O)c1cc(Cl)ccc1O	64.8	> 100	49.6	> 100	> 100	84.2	49	16.5	55.8	49.2	> 100	> 100	> 100	60.6	59.7	> 100	55.6
C[C@]12C[C@@H](OC(=O)[C@]1(C)O)[C@@H]([C@]1(O)CC[C@H]3[C@@H]4C[C@H]5O[C@]56C[C@H]5O[C@H]5C(=O)[C@]6(C)[C@H]4CC[C@@]31C)C2	> 50	> 50	> 50	> 50	> 50	> 50	> 50		> 50	> 50	> 50	> 50	> 50	> 50	> 50	> 50	> 50
C=C1CC(c2ccc(OCCCN3C(=O)c4ccccc4C3=O)cc2)OC1=O (stereo not drawn)	5.23	3.16	9.09	9.2	10.7	11.4	1.83	5.31		9.35	0.827	8.57	2.99	> 34.7	14.5	10.7	7.81
CC(=O)Oc1ccc(/C=C/C(=O)OCCCOC(=O)/C=C/c2ccc(OC(C)=O)c(OC(C)=O)c2)cc1OC(C)=O	> 100	> 100	> 100	> 100	> 100		> 100	> 100	> 100	> 100	> 100	> 100	> 100	> 100	> 100	> 100	> 100
CCOC(=O)CNC(=O)C(CSC(=O)N(O)c1ccc(Cl)cc1)NC(=O)CCC(N)C(=O)OCC (stereo not drawn)	> 50	> 50	> 50	> 50	> 50	> 50		> 50		> 50	> 50	> 50	> 50	> 50		> 50	> 50
COC(=O)c1ccc(S)c(S(=O)(=O)Nc2n[nH]c(N)n2)c1	> 100	> 100	> 100	> 100	> 100		> 100	> 100	> 100	> 100	> 100	> 100	> 100	> 100	> 100	> 100	> 100
CC1=C(O)C2=C(C(=O)C1=O)[C@@H](C)CC[C@@H]2[C@@H](C)C/C=C/C(C)(C)O	> 100	> 100	> 100	> 100	> 100	> 100	58.8	79.2		> 100	> 100	80.4	> 100	78.2		> 100	> 100
Oc1ccc2cc(Br)ccc2c1-c1c(O)ccc2ccc(Br)cc12	28.2	35.8	33.1	31.1	24.6	30.4	29.9	27.8		30.4	34.8	52.4	24.2	25.3	31.2	28	28.8
Cc1nc2ccc(C(F)(F)F)cc2nc1NCc1ccc(Cl)c(Cl)c1	30.3	42.2		31.8	32	37.9	28.8	26.3		33.2	33.7	32.7	34.7	9	21.2	30.6	29.9
NC(=O)C(=CNC(=S)Nc1ccccc1)C(N)=O	> 100	> 100	> 100	> 100	> 100	> 100	> 100	> 100	> 100	> 100	> 100	> 100	> 100	> 100		> 100	
CCCCCCCC1(N=[N+]=[N-])C(=O)Nc2ccccc2C1=O (stereo not drawn)	32	61.3	33.2	34.2	37.8			29.6	29.8		29.6	90	26.4	35	31	28.8	25.3
N#Cc1nc(-c2ccco2)oc1N	> 10	> 10	> 10	> 10	> 10	> 10	> 10		> 10	> 10	> 10	> 10	> 10	> 10	> 10		> 10
CCOC(=O)c1nc2cc(C(F)(F)F)ccc2nc1Nc1ccc(OC)cc1	> 100		> 100	> 100	> 100	> 100	> 100	> 100		> 100	> 100	> 100	> 100	> 100	> 100		> 100
CCOC(=O)C1(F)S(=O)(=O)OCCOS1(=O)=O	> 100		> 100	> 100	> 100	> 100	> 100	> 100	> 100	> 100	> 100	> 100	> 100	> 100	> 100	> 100	> 100
NC1CC(=O)c2c1sc(Cl)c2Cl (stereo not drawn)	> 100	> 100	> 100	> 100	> 100			> 100		> 100	> 100	> 100	> 100	> 100	> 100	> 100	> 100
